How the values were obtained:
[1] = Comparative active ester reactivity study with HOA nucleophile (N-hydroxy-N-methylbenzamide); settings: N-Hydroxy-N-methylbenzamide 1 eq., 22±2° C.
Experimental: (§1) General Experimental Protocol for Comparative Active Ester Reactivity Study with HOPO or HOA Nucleophiles
(§2) To a 4 mL scintillation vial containing Compound A-E (in respective experiments; 1 eq.) was added a stir bar followed by 150 μL of HPLC grade acetonitrile. In another 4 mL scintillation vial containing a respective nucleophile (1 eq.) was added 280 μL HPLC grade water. The solutions were combined and allowed to stir at room temperature (22±2° C.) for 4 hours. Timed aliquots at time (T)=15, 30, 60, 120 and 240 minutes were taken and analyzed by HPLC-MS using elution method 1 (Table 1).

[2] = Temperature stability study in H2O; type: physicochemical
Experimental: (§3) 20° C.: To a 4 mL scintillation vial containing Compound A-E (in respective experiments; 0.8 mg) was added 4 mL of HPLC grade water to create a 0.2 mg/mL solution. 2 mL of this solution was added to a 2 mL HPLC vial and placed in the auto sampler of an HPLC-MS at 20° C. Timed aliquots at time (T)=15, 30, 60, 120, 240 and 480 minutes were taken and analyzed by HPLC-MS using elution method 1 (Table 4).
50° C.: To a 4 mL scintillation vial containing Compound A-E (in respective experiments; 0.8 mg) was added a stir bar followed by 4 mL of HPLC grade water to create a 0.2 mg/mL solution. The vial was capped and allowed to stir in a 50° C. oil bath for 8 hours. Timed aliquots at time (T) =15, 30, 60, 120, 240 and 480 minutes were taken and analyzed by HPLC-MS using elution method 1 (Table 4).

[3] = Nucleophilic reactivity study with L-Lysine; settings: L-Lysine 5 equiv, 22±2° C.
Experimental: General Experimental Protocol for Nucleophilic Reactivity Study with L-Lysine
To a 4 mL scintillation vial containing Compound A-E (in respective experiments; 1 eq.) was added a stir bar followed by 70 μL of HPLC grade acetonitrile. In another 4 mL scintillation vial containing L-Lysine monohydrochloride (5 eq.) was added 130 μL HPLC grade water followed by diisopropylethylamine (5 eq.). The solutions were combined and allowed to stir at room temperature (22±2° C.). Timed aliquots at time (T)=15, 30, 60 and 120 minutes were taken and analyzed by HPLC-MS using elution method 1 (Table 2).

[4] = Comparative active ester reactivity study with HOA nucleophile (benzhydroxamic acid); settings: Benzhydroxamic Acid 1 eq., 22±2° C.
Experimental: as §1, §2

DMSO stability study = type: physicochemical
Experimental: To a 4 mL scintillation vial containing Compound A-E (in respective experiments; 4 mg) was added a stir bar followed by 500 μL of anhydrous dimethyl sulfoxide and was allowed to stir at room temperature (22±2° C.) for 4 hours. Timed aliquots at time (T)=15, 30, 60, 120 and 240 minutes were taken, dissolved in water to achieve 2% DMSO composition and analyzed by HPLC-MS using elution method 1 (Table 5).

[5] = Comparative active ester reactivity study with HOPO nucleophile; settings: 1,2-HOPO 1 eq., 22±2° C.
Experimental: as §1, §2

pH stability study = type: physicochemical; settings: 20° C.
Experimental: as §3, with “To” for “20° C.: To”, “either a pH 3, pH 5 pH 7 or pH 9 buffer” for “HPLC grade water”, “3). […]” for “4).”
pH 3 Buffer: Citric acid/Na2HPO4 (79.45 mL 0.1 M-citric acid and 20.55 mL 0.2-Na2HPO4) pH 5 Buffer: Citric acid/Na2HPO4 (48.50 mL 0.1 M-citric acid and 51.50 mL 0.2-Na2HPO4) pH 7 Buffer: Citric acid/Na2HPO4 (17.65 mL 0.1 M-citric acid and 82.35 mL 0.2-Na2HPO4) pH 9 Buffer: Sodium Carbonate/Sodium Bicarbonate (10 mL 0.1 M-Na2CO3 and 90 mL 0.1-NaHCO3)

## O=C(CCc1cccnc1)Oc1c(F)cccc1F [Compound B, 2,6-Difluorophenyl-3-(pyridin-3-yl)propanoate]
[1]; 15 min
  % Active Ester Remaining: 91.32%
[1]; 30 min
  % Active Ester Remaining: 84.96%
[1]; 60 min
  % Active Ester Remaining: 73.90%
[1]; 120 min
  % Active Ester Remaining: 56.72%
[1]; 240 min
  % Active Ester Remaining: 35.97%
[2]; 20° C., 15 min
  % Remaining: 99.63%
[2]; 20° C., 30 min
  % Remaining: 99.20%
[2]; 20° C., 60 min
  % Remaining: 98.92%
[2]; 20° C., 120 min
  % Remaining: 98.12%
[2]; 20° C., 240 min
  % Remaining: 96.98%
[2]; 20° C., 480 min
  % Remaining: 95.14%
[2]; 50° C., 15 min
  % Remaining: 97.57%
[2]; 50° C., 30 min
  % Remaining: 92.71%
[2]; 50° C., 60 min
  % Remaining: 89.62%
[2]; 50° C., 120 min
  % Remaining: 85.20%
[2]; 50° C., 240 min
  % Remaining: 79.93%
[2]; 50° C., 480 min
  % Remaining: 68.06%
[3]; 15 min
  % Active Ester Remaining: 0.20%
[3]; 30 min
  % Active Ester Remaining: 0%
[4]; 15 min
  % Active Ester Remaining: 81.80%
[4]; 30 min
  % Active Ester Remaining: 69.62%
[4]; 60 min
  % Active Ester Remaining: 56.57%
[4]; 120 min
  % Active Ester Remaining: 42.81%
[4]; 240 min
  % Active Ester Remaining: 28.60%
DMSO stability study; 15 min
  % Active Ester Remaining in DMSO at 22 ± 2° C.: 99.89%
DMSO stability study; 30 min
  % Active Ester Remaining in DMSO at 22 ± 2° C.: 99.81%
DMSO stability study; 60 min
  % Active Ester Remaining in DMSO at 22 ± 2° C.: 99.79%
DMSO stability study; 120 min
  % Active Ester Remaining in DMSO at 22 ± 2° C.: 99.78%
DMSO stability study; 240 min
  % Active Ester Remaining in DMSO at 22 ± 2° C.: 99.46%
[5]; 15 min
  % Active Ester Remaining: 98.85%
[5]; 30 min
  % Active Ester Remaining: 96.23%
[5]; 60 min
  % Active Ester Remaining: 90.85%
[5]; 120 min
  % Active Ester Remaining: 84.98%
[5]; 240 min
  % Active Ester Remaining: 69.55%
pH stability study; pH 3 buffer, 15 min
  % Remaining: 100%
pH stability study; pH 3 buffer, 30 min
  % Remaining: 99.56%
pH stability study; pH 3 buffer, 60 min
  % Remaining: 99.19%
pH stability study; pH 3 buffer, 120 min
  % Remaining: 98.69%
pH stability study; pH 3 buffer, 240 min
  % Remaining: 97.41%
pH stability study; pH 3 buffer, 480 min
  % Remaining: 95.05%
pH stability study; pH 5 buffer, 15 min
  % Remaining: 100%
pH stability study; pH 5 buffer, 30 min
  % Remaining: 99.50%
pH stability study; pH 5 buffer, 60 min
  % Remaining: 99.05%
pH stability study; pH 5 buffer, 120 min
  % Remaining: 98.27%
pH stability study; pH 5 buffer, 240 min
  % Remaining: 96.36%
pH stability study; pH 5 buffer, 480 min
  % Remaining: 92.97%
pH stability study; pH 7 buffer, 15 min
  % Remaining: 99.35%
pH stability study; pH 7 buffer, 30 min
  % Remaining: 98.45%
pH stability study; pH 7 buffer, 60 min
  % Remaining: 97.44%
pH stability study; pH 7 buffer, 120 min
  % Remaining: 95.40%
pH stability study; pH 7 buffer, 240 min
  % Remaining: 91.66%
pH stability study; pH 7 buffer, 480 min
  % Remaining: 84.15%
pH stability study; pH 9 buffer, 15 min
  % Remaining: 78.39%
pH stability study; pH 9 buffer, 30 min
  % Remaining: 65.31%
pH stability study; pH 9 buffer, 60 min
  % Remaining: 54.47%
pH stability study; pH 9 buffer, 120 min
  % Remaining: 38.67%
pH stability study; pH 9 buffer, 240 min
  % Remaining: 19.98%
pH stability study; pH 9 buffer, 480 min
  % Remaining: 5.01%

## O=C(CCc1cccnc1)Oc1ccc([N+](=O)[O-])cc1 [Compound D, 4-Nitrophenyl-3-(pyridin-3-yl)propanoate]
[1]; 15 min
  % Active Ester Remaining: 95.63%
[1]; 30 min
  % Active Ester Remaining: 90.98%
[1]; 60 min
  % Active Ester Remaining: 83.40%
[1]; 120 min
  % Active Ester Remaining: 65.46%
[1]; 240 min
  % Active Ester Remaining: 41.73%
[2]; 20° C., 15 min
  % Remaining: 97.54%
[2]; 20° C., 30 min
  % Remaining: 96.41%
[2]; 20° C., 60 min
  % Remaining: 95.69%
[2]; 20° C., 120 min
  % Remaining: 94.78%
[2]; 20° C., 240 min
  % Remaining: 93.59%
[2]; 20° C., 480 min
  % Remaining: 91.31%
[2]; 50° C., 15 min
  % Remaining: 86.19%
[2]; 50° C., 30 min
  % Remaining: 77.18%
[2]; 50° C., 60 min
  % Remaining: 72.58%
[2]; 50° C., 120 min
  % Remaining: 67.54%
[2]; 50° C., 240 min
  % Remaining: 65.59%
[2]; 50° C., 480 min
  % Remaining: 66.22%
[3]; 15 min
  % Active Ester Remaining: 8.34%
[3]; 30 min
  % Active Ester Remaining: 0%
[4]; 15 min
  % Active Ester Remaining: 96.49%
[4]; 30 min
  % Active Ester Remaining: 84.28%
[4]; 60 min
  % Active Ester Remaining: 74.58%
[4]; 120 min
  % Active Ester Remaining: 57.07%
[4]; 240 min
  % Active Ester Remaining: 34.21%
DMSO stability study; 15 min
  % Active Ester Remaining in DMSO at 22 ± 2° C.: 99.35%
DMSO stability study; 30 min
  % Active Ester Remaining in DMSO at 22 ± 2° C.: 98.99%
DMSO stability study; 60 min
  % Active Ester Remaining in DMSO at 22 ± 2° C.: 99.29%
DMSO stability study; 120 min
  % Active Ester Remaining in DMSO at 22 ± 2° C.: 99.65%
DMSO stability study; 240 min
  % Active Ester Remaining in DMSO at 22 ± 2° C.: 99.31%
[5]; 15 min
  % Active Ester Remaining: 99.18%
[5]; 30 min
  % Active Ester Remaining: 96.81%
[5]; 60 min
  % Active Ester Remaining: 93.29%
[5]; 120 min
  % Active Ester Remaining: 85.25%
[5]; 240 min
  % Active Ester Remaining: 75.07%
pH stability study; pH 3 buffer, 15 min
  % Remaining: 100%
pH stability study; pH 3 buffer, 30 min
  % Remaining: 99.74%
pH stability study; pH 3 buffer, 60 min
  % Remaining: 99.57%
pH stability study; pH 3 buffer, 120 min
  % Remaining: 99.21%
pH stability study; pH 3 buffer, 240 min
  % Remaining: 98.55%
pH stability study; pH 3 buffer, 480 min
  % Remaining: 97.20%
pH stability study; pH 5 buffer, 15 min
  % Remaining: 99.83%
pH stability study; pH 5 buffer, 30 min
  % Remaining: 99.54%
pH stability study; pH 5 buffer, 60 min
  % Remaining: 99.19%
pH stability study; pH 5 buffer, 120 min
  % Remaining: 98.63%
pH stability study; pH 5 buffer, 240 min
  % Remaining: 97.52%
pH stability study; pH 5 buffer, 480 min
  % Remaining: 94.89%
pH stability study; pH 7 buffer, 15 min
  % Remaining: 99.11%
pH stability study; pH 7 buffer, 30 min
  % Remaining: 98.00%
pH stability study; pH 7 buffer, 60 min
  % Remaining: 96.59%
pH stability study; pH 7 buffer, 120 min
  % Remaining: 94.83%
pH stability study; pH 7 buffer, 240 min
  % Remaining: 89.25%
pH stability study; pH 7 buffer, 480 min
  % Remaining: 78.56%
pH stability study; pH 9 buffer, 15 min
  % Remaining: 83.05%
pH stability study; pH 9 buffer, 30 min
  % Remaining: 61.77%
pH stability study; pH 9 buffer, 60 min
  % Remaining: 42.40%
pH stability study; pH 9 buffer, 120 min
  % Remaining: 23.66%
pH stability study; pH 9 buffer, 240 min
  % Remaining: 14.96%
pH stability study; pH 9 buffer, 480 min
  % Remaining: 10.31%

— patent US20240139333A1, “2,6-DICHLOROPHENYL ESTER COMPOUNDS AND USE THEREOF” (Fusion Pharmaceuticals Inc., priority 2021, published 2024)
